The record followed here is patent US20050031679A1, “Method for producing liposomal formulations of active ingredients” (priority 1998, published 2005).

This data set can be described thus: Efficiency of inclusion of active ingredient added subsequently to a finished liposome gel. The data set is classed as physicochemical. From the text: This object is achieved by a method for producing liposomes which comprise as active ingredient at least one physiologically active or/and diagnostic compound, by production of a mixture of membrane-forming amphiphiles, dispersion of the mixture in water and high pressure homogenization of the dispersion until the liposomes are formed, which comprises • (a) adding the active ingredient to any liposome preparation, preferably a liposome gel, which contains at least 20% by weight lipid, and • (b) incubating the active ingredient-containing mixture, where appropriate with mechanical agitation, until • (i) hydrophilic active ingredients are distributed in the liposomes and between the liposomes in accordance with the proportions by volume of aqueous medium inside and outside the liposomes in the preparation (equilibrium state) or • (ii) lipophilic compounds are incorporated in the lipid bilayer, or • (iii) amphiphilic compounds have surmounted the lipid bilayer and are incorporated or associated in the outer regions of the lipid bilayer.
A liposome gel which contains the cytostatic gemcitabine as active component cannot be autoclaved because this antitumor agent promotes the hydrolysis of the phospholipids, leading to complete phospholipid degradation under standard conditions during autoclaving. […]

`Nc1ccn([C@@H]2O[C@H](CO)[C@@H](O)C2(F)F)c(=O)n1` [gemcitabine]: the efficiency of inclusion result (autoclaved liposome gel mixed with concentrated buffered gemcitabine solution, incubation at 60° C. for four hours (equilibrium)) is listed as “more than 30%”.
The compound `C[C@@H]1[C@H](O)[C@@H](C)/C=C/C=C/C=C/C=C/C=C/C=C/C=C/[C@H](O[C@@H]2O[C@H](C)[C@@H](O)[C@H](N)[C@@H]2O)C[C@@H]2O[C@](O)(C[C@@H](O)C[C@@H](O)[C@H](O)CC[C@@H](O)C[C@@H](O)CC(=O)O[C@H]1C)C[C@H](O)[C@H]2C(=O)O` [amphotericin B] returned an efficiency of inclusion (added as solid substance to the liposome gel, incubated with shaking at 50° C. for 3 hours) of 95%.
